Test results from ChEMBL document CHEMBL5614385, “A peptide-salinomycin conjugate with a bystander effect reduces the stemness characteristics of ovarian cancer cells and enhances drug sensitivity” (Eur J Med Chem, 2024).
Blank lines part the entries; values can stand above or below the compound they belong to. The source made the active and inactive calls. The calls are words filed in the database; no cut-off is given here. Non-standard residues stand in square brackets, D forms with d. Residues, ends and D or L forms follow the SMILES beside them. *: point of attachment. X1 = CC[C@@H](C(=O)O)C1CC[C@H](C)C([C@@H](C)[C@H](O)[C@H](C)C(=O)[C@H](CC)C2O[C@]3(C=C[C@@H](NC(=O)CCS*)[C@]4(CC[C@@](C)(C5CC[C@](O)(CC)[C@H](C)O5)O4)O3)[C@H](C)C[C@@H]2C)O1; Sar = CNCC(=O)O

Experiments:
[1] = biological target: Vascular endothelial growth factor receptor 2 (Homo sapiens) (UniProt P35968); experiment: Inhibition of VEGFR2 phosphorylation in human SK-OV-3 cells at 5 uM incubated for 24 hrs by Western blot analysis; assay type: cell-based
Chain of Vascular endothelial growth factor receptor 2 (Homo sapiens) (P35968 whole entry): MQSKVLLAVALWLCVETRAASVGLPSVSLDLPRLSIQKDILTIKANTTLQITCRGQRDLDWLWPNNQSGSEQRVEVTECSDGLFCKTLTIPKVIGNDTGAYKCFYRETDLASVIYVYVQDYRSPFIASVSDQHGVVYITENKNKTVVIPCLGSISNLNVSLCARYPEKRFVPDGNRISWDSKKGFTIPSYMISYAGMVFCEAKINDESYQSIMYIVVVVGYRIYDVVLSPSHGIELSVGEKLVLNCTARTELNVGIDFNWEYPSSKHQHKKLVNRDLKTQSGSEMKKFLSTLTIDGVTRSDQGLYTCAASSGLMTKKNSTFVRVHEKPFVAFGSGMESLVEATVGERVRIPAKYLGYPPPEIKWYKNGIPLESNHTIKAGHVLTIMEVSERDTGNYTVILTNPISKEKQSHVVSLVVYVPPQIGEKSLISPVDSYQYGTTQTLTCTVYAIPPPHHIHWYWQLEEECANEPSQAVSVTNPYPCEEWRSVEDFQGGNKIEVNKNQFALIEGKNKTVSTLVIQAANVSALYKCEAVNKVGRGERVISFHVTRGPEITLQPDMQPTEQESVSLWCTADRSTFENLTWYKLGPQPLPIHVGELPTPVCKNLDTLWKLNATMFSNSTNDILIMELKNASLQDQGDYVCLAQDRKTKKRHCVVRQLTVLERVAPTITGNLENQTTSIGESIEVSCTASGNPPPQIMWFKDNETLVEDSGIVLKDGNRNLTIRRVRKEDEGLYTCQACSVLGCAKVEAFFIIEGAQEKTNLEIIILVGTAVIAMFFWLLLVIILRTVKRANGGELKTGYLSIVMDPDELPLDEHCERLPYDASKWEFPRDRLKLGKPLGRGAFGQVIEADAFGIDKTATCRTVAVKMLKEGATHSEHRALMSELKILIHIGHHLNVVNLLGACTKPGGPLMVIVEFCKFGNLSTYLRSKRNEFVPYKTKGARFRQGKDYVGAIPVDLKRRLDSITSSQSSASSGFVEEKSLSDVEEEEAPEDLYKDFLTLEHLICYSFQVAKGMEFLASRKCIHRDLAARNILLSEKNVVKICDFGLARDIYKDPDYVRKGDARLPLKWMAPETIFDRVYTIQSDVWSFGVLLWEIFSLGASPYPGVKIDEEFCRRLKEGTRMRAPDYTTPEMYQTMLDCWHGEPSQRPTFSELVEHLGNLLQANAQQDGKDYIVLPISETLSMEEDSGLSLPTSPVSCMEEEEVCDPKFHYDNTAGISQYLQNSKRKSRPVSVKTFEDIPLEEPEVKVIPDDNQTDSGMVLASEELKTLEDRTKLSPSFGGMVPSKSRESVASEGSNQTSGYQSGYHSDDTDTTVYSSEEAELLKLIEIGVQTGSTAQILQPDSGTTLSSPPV

SK-OV-3 [2] = experiment: Inhibition of AKT phosphorylation in human SK-OV-3 cells at 5 uM incubated for 24 hrs by Western blot analysis; assay type: cell-based
A2780 [3] = experiment: Antitumor activity against CD44 negative human A2780 cells co-cultured with CD44 positive human SK-OV-3 cells in DMEM medium at 4:6 ratio assessed as induction of cell death incubated for 72 hrs by enzymatic immunoassay; assay type: functional, cell-based; conditions: dose 2.5-20 µM
[4] = biological target: CD44 antigen (Homo sapiens) (UniProt P16070); experiment: Binding affinity to CD44 positive human SK-OV-3 cells at 5 uM incubated for 1 hrs by flow cytometric analysis; assay type: cell-based
Chain of CD44 antigen (Homo sapiens) (P16070 whole entry): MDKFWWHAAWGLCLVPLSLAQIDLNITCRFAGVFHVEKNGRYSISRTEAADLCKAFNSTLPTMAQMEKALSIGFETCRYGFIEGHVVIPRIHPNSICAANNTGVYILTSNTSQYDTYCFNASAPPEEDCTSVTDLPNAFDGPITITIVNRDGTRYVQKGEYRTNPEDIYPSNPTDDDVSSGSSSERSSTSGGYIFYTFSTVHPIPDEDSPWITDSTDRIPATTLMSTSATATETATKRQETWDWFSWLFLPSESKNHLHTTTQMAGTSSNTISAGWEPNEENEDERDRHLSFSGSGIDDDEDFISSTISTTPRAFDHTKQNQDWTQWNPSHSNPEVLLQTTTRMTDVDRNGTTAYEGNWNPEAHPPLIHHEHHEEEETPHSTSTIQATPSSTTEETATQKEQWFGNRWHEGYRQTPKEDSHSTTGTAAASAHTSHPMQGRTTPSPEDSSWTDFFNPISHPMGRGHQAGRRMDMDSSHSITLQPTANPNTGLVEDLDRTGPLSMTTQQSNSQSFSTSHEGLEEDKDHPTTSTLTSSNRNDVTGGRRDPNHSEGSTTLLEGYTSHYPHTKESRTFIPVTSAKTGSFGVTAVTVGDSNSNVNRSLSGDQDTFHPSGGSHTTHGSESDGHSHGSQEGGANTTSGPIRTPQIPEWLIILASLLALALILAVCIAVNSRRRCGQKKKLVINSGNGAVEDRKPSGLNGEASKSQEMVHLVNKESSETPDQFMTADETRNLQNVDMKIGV

SK-OV-3/CDDP [5] = experiment: Reduction in intracellular GSH level in human SK-OV-3 cells at 5 uM incubated for 36 hrs; assay type: functional, cell-based
SK-OV-3 [6] = experiment: Antitumor activity against human SK-OV-3 cells xenografted in nude mouse assessed as reduction in oct-4 level administered intravenously every 2 days for 21 days by hematoxylin based immunohistochemistry analysis; assay type: functional, cell-based; conditions: route iv, time 21.0 day
SK-OV-3 [7] = experiment: Inhibition of cell invasion in human SK-OV-3 cells incubated for 24 hrs by crystal violet staining based transwell invasion assay; assay type: functional; conditions: dose 5.0 µM
SK-OV-3/CDDP [8] = experiment: Cytotoxicity against human SK-OV-3/CDDP cells assessed as inhibition of cell proliferation incubated for 72 hrs by CCK8 assay; assay type: functional, cell-based
SK-OV-3/CDDP [9] = experiment: Antiproliferative activity against human SK-OV-3/CDDP cells; assay type: functional, cell-based
SK-OV-3/CDDP [10] = experiment: Induction of ROS generation in human SK-OV-3/CDDP cells at 5 uM; assay type: functional, cell-based
SK-OV-3 [11] = experiment: Inhibition of tumor sphere formation in agarose-treated human SK-OV-3 cells assessed as fold decrease in number of formed spheres at 0.5 to 5 uM incubated for 9 days by imaging analysis; assay type: functional; conditions: dose 0.5-5 µM; time 9 day
A2780 [12] = experiment: Antitumor activity against CD44 negative human A2780 cells expressing GFP co-cultured with CD44 positive human SK-OV-3 cells in DMEM medium at 6:4 ratio assessed as decrease in fluorescence intensity incubated for 72 hrs by enzymatic immunoassay; assay type: functional, cell-based; conditions: dose 2.5-20 µM
SK-OV-3 [13] = experiment: Inhibition of cell migration in human SK-OV-3 cells at 5 uM incubated for 24 hrs by microscope based wound healing assay; assay type: functional
A2780 [14] = experiment: Antitumor activity against CD44 negative human A2780 cells expressing GFP co-cultured with CD44 positive human SK-OV-3 cells in DMEM medium at 4:6 ratio assessed as decrease in fluorescence intensity incubated for 72 hrs by enzymatic immunoassay; assay type: functional, cell-based; conditions: dose 2.5-20 µM
SK-OV-3 [15] = experiment: Cytotoxicity against CD44 positive human SK-OV-3 cells assessed as reduction in cell viability at 100 uM preincubated with 10 and 100 uM of 4S)-4-[[(2S)-1-[(2S)-1-[(2S)-2-[[(2S)-2-[[(2S)-1-[(2S)-2-acetamido-6-amino-hexanoyl]pyrrolidine-2-carbonyl]amino]-3-hydroxy-propanoyl]amino]-3-hydroxy-propanoyl]pyrrolidine-2-carbonyl]pyrrolidine-2-carbonyl]amino]-5-[[(1S)-1-[[2-[[2-[[2-[[2-[[2-[[2-[[2-[[2-[[2-[[2-[[(1S)-2-amino-1-methyl-2-oxo-ethyl]amino]-2-oxo-ethyl]-methyl-amino]-2-oxo-ethyl]-methyl-amino]-2-oxo-ethyl]-methyl-amino]-2-oxo-ethyl]-methyl-amino]-2-oxo-ethyl]-methyl-amino]-2-oxo-ethyl]-methyl-amino]-2-oxo-ethyl]-methyl-amino]-2-oxo-ethyl]-methyl-amino]-2-oxo-ethyl]-methyl-amino]-2-oxo-ethyl]-methyl-carbamoyl]-3-carboxy-propyl]amino]-5-oxo-pentanoic acid for 1 hrs followed by compound addition and measured after 24 hrs by CCK8 assay; assay type: functional, cell-based
A2780 [16] = experiment: Binding affinity to CD44 negative human A2780 cells at 5 uM incubated for 1 hrs by flow cytometric analysis; assay type: functional, cell-based
SK-OV-3 [17] = experiment: Antitumor activity against CD44 positive human SK-OV-3 cells assessed as reduction in cell viability incubated for 72 hrs by CCK8 assay; assay type: functional, cell-based; conditions: SK-OV-3, 72 h
SK-OV-3/CDDP [18] = experiment: Sensitization of cisplatin-induced antiproliferative activity against human SK-OV-3/CDDP cells assessed as reduction in cell viability at 1 uM incubated for 72 hrs by CCK8 assay; assay type: functional, cell-based
SK-OV-3 [19] = experiment: Effect on CD44 expression in CD44 positive human SK-OV-3 cells; assay type: functional, cell-based
SK-OV-3 [20] = experiment: Antiproliferative activity against human SK-OV-3 cells; assay type: functional, cell-based
A2780 [21] = experiment: Antitumor activity against CD44 negative human A2780 cells co-cultured with CD44 positive human SK-OV-3 cells in DMEM medium at varying ratio assessed as inhibition of cell growth at 20 uM incubated for 72 hrs by enzymatic immunoassay relative to control; assay type: functional
[22] = Solubility of compound in water; assay type: physicochemical; conditions: buffer
A2780 [23] = experiment: Antitumor activity against CD44 negative human A2780 cells expressing GFP co-cultured with CD44 positive human SK-OV-3 cells in DMEM medium at 5:5 ratio assessed as decrease in fluorescence intensity incubated for 72 hrs by enzymatic immunoassay; assay type: functional, cell-based; conditions: dose 2.5-20 µM
A2780 [24] = experiment: Antitumor activity against CD44 negative human A2780 cells co-cultured with CD44 positive human SK-OV-3 cells in DMEM medium at 6:4 ratio assessed as induction of cell death incubated for 72 hrs by enzymatic immunoassay; assay type: functional, cell-based; conditions: dose 2.5-20 µM
SK-OV-3 [25] = experiment: Antitumor activity against human SK-OV-3 cells xenografted in nude mouse assessed as tumor growth inhibition at 35 microg/kg, iv administered every 2 days for 21 days; assay type: functional, organism-based; conditions: dose 35.0 µg/kg, time 21.0 day
A2780 [26] = experiment: Antitumor activity against CD44 negative human A2780 cells assessed as reduction in cell viability incubated for 72 hrs by CCK8 assay; assay type: functional, cell-based; conditions: A2780, 72 h
SK-OV-3 [27] = experiment: Antitumor activity against human SK-OV-3 cells xenografted in nude mouse assessed as reduction in Nanog level administered intravenously every 2 days for 21 days by hematoxylin based immunohistochemistry analysis; assay type: functional, cell-based; conditions: route iv, time 21.0 day
A2780 [28] = experiment: Antitumor activity against CD44 negative human A2780 cells co-cultured with CD44 positive human SK-OV-3 cells in DMEM medium at 5:5 ratio assessed as induction of cell death incubated for 72 hrs by enzymatic immunoassay; assay type: functional, cell-based; conditions: dose 2.5-20 µM
SK-OV-3 [29] = experiment: Downregulation of CD133 expression in human SK-OV-3 tumor stem cells at 10 uM incubated for 36 hrs by flow cytometric analysis; assay type: functional, cell-based
A-431 = experiment: Cytotoxicity against human A-431 cells assessed as inhibition of cell growth incubated for 72 hrs by CCK8 assay; assay type: functional, cell-based; conditions: A-431, 72 h
CAL-27 = experiment: Cytotoxicity against human CAL-27 cells assessed as inhibition of cell growth incubated for 72 hrs by CCK8 assay; assay type: functional, cell-based; conditions: CAL-27, 72 h
MIA PaCa-2 = experiment: Cytotoxicity against human MIA PaCa-2 cells assessed as inhibition of cell growth incubated for 72 hrs by CCK8 assay; assay type: functional, cell-based; conditions: MIA PaCa-2, 72 h
A549 = experiment: Cytotoxicity against human A549 cells assessed as inhibition of cell growth incubated for 72 hrs by CCK8 assay; assay type: functional, cell-based; conditions: A549, 72 h
SK-OV-3 [30] = experiment: Inhibition of cell invasion in human SK-OV-3 cells at 5 uM incubated for 24 hrs by crystal violet staining based transwell invasion assay; assay type: functional
MCF7 = experiment: Cytotoxicity against human MCF7 cells assessed as inhibition of cell growth incubated for 72 hrs by CCK8 assay; assay type: functional, cell-based; conditions: MCF7, 72 h
MKN-45 = experiment: Cytotoxicity against human MKN-45 cells assessed as inhibition of cell growth incubated for 72 hrs by CCK8 assay; assay type: functional, cell-based; conditions: MKN-45, 72 h
HCCLM3 = experiment: Cytotoxicity against human HCCLM3 cells assessed as inhibition of cell growth incubated for 72 hrs by CCK8 assay; assay type: functional, cell-based; conditions: HCCLM3, 72 h
HeLa = experiment: Cytotoxicity against human HeLa cells assessed as inhibition of cell growth incubated for 72 hrs by CCK8 assay; assay type: functional, cell-based
SK-OV-3 [31] = experiment: Inhibition of cell migration in human SK-OV-3 cells at 10 uM incubated for 24 hrs by microscope based wound healing assay; assay type: functional
MDA-MB-231 = experiment: Cytotoxicity against human MDA-MB-231 cells assessed as inhibition of cell growth incubated for 72 hrs by CCK8 assay; assay type: functional, cell-based; conditions: MDA-MB-231, 72 h
ACHN = experiment: Cytotoxicity against human ACHN cells assessed as inhibition of cell growth incubated for 72 hrs by CCK8 assay; assay type: functional, cell-based
DU-145 = experiment: Cytotoxicity against human DU-145 cells assessed as inhibition of cell growth incubated for 72 hrs by CCK8 assay; assay type: functional, cell-based; conditions: DU-145, 72 h

inhibition [1]: Active
SMILES: CC(=O)N[C@@H](CCCCN)C(=O)N1CCC[C@H]1C(=O)N[C@@H](CO)C(=O)N[C@@H](CO)C(=O)N1CCC[C@H]1C(=O)N1CCC[C@H]1C(=O)N[C@@H](CCC(=O)O)C(=O)N[C@@H](CCC(=O)O)C(=O)N(C)CC(=O)N(C)CC(=O)N(C)CC(=O)N(C)CC(=O)N(C)CC(=O)N(C)CC(=O)N(C)CC(=O)N(C)CC(=O)N(C)CC(=O)N(C)CC(=O)N[C@@H](C)C(N)=O (Ac-KPSSPPEE[Sar][Sar][Sar][Sar][Sar][Sar][Sar][Sar][Sar][Sar]A-NH2)
inhibition (SK-OV-3 [2]): Active

inhibition [1]: Active
Activity [4]: Active
IC50 (SK-OV-3/CDDP [9]): 18.7 µg/mL
IC50 (SK-OV-3 [17]): 5.45 µM
IC50 (SK-OV-3 [20]): 5.21 µg/mL
solubility [22]: Soluble
IC50 (A2780 [26]): 47.1 µM
SMILES: CC[C@@H](C(=O)[O-])C1CC[C@H](C)C([C@@H](C)[C@H](O)[C@H](C)C(=O)[C@H](CC)C2O[C@]3(C=C[C@@H](NC(=O)CCSSC[C@H](NC(=O)CN(C)C(=O)CN(C)C(=O)CN(C)C(=O)CN(C)C(=O)CN(C)C(=O)CN(C)C(=O)CN(C)C(=O)CN(C)C(=O)CN(C)C(=O)CN(C)C(=O)[C@H](CCC(=O)O)NC(=O)[C@H](CCC(=O)O)NC(=O)[C@@H]4CCCN4C(=O)[C@@H]4CCCN4C(=O)[C@H](CO)NC(=O)[C@H](CO)NC(=O)[C@@H]4CCCN4C(=O)[C@H](CCCCN)NC(C)=O)C(N)=O)[C@]4(CC[C@@](C)(C5CC[C@](O)(CC)[C@H](C)O5)O4)O3)[C@H](C)C[C@@H]2C)O1.[Na+] (stereo partly drawn) (Ac-KPSSPPEE[Sar][Sar][Sar][Sar][Sar][Sar][Sar][Sar][Sar][Sar]C(X1)-NH2)
Activity (A2780 [3]): Dose-Dependent Effect
Activity (SK-OV-3/CDDP [5]): Active
Activity (SK-OV-3 [6]): Active
inhibition (SK-OV-3 [7]): Dose-Dependent Effect
IC50 (SK-OV-3/CDDP [8]): 6.09 µM
Activity (SK-OV-3/CDDP [10]): Active
fold change (FC) (SK-OV-3 [11]): 4.6
Activity (A2780 [12]): Dose-Dependent Effect
inhibition (SK-OV-3 [13]): Active
Activity (A2780 [14]): Dose-Dependent Effect
Activity (SK-OV-3 [15]): inactive
Activity (A2780 [16]): inactive
Activity (SK-OV-3/CDDP [18]): Active
Activity (SK-OV-3 [19]): inactive
inhibition at 20 µM (A2780 [21]): > 80%
inhibition (SK-OV-3 [2]): Active
Activity (A2780 [23]): Dose-Dependent Effect
Activity (A2780 [24]): Dose-Dependent Effect
Activity (SK-OV-3 [25]): Active
Activity (SK-OV-3 [27]): Active
Activity (A2780 [28]): Dose-Dependent Effect
Activity (SK-OV-3 [29]): Active

SMILES: CC[C@@H](C(=O)[C@@H](C)[C@@H](O)[C@H](C)[C@@H]1O[C@@H]([C@@H](CC)C(=O)O)CC[C@@H]1C)[C@H]1O[C@]2(C=C[C@@H](O)[C@]3(CC[C@@](C)([C@H]4CC[C@](O)(CC)[C@H](C)O4)O3)O2)[C@H](C)C[C@@H]1C [SALINOMYCIN]
inhibition [1]: Active
IC50 (A-431): 5.27 µM
IC50 (CAL-27): 30.2 µM
IC50 (MIA PaCa-2): 5.03 µM
IC50 (SK-OV-3/CDDP [8]): 10.3 µM
IC50 (A549): 25.1 µM
inhibition (SK-OV-3 [30]): Active
IC50 (MCF7): 9.89 µM
IC50 (MKN-45): 6.49 µM
inhibition (SK-OV-3 [13]): inactive
IC50 (HCCLM3): 7.99 µM
IC50 (SK-OV-3 [17]): 12.4 µM
Activity (SK-OV-3/CDDP [18]): Active
IC50 (HeLa): 25 µM
Activity (SK-OV-3 [19]): inactive
inhibition (SK-OV-3 [31]): Active
inhibition (SK-OV-3 [2]): Active
IC50 (MDA-MB-231): 900 nM
IC50 (ACHN): 26 µM
IC50 (A2780 [26]): 0.16 µM
IC50 (DU-145): 47.1 µM
Activity (SK-OV-3 [29]): Active
